Data taken from patent EP4603105A1, “PHARMACEUTICAL COMPOSITION CONTAINING CYCLIC COMPOUND HAVING SELECTIVE KRAS INHIBITORY EFFECT AGAINST HRAS AND NRAS” (CHUGAI SEIYAKU KABUSHIKI KAISHA, priority 2022, dated 2024).
*1 amine or outer side, *2 acyl side, *3 side chain or, on linkers, in order; H or OH if unused. Where a SMILES comes first, the peptide text is derived from it. Bridges are numbered along the chain shown (N, C = ends). [ ]: non-standard residue; d: D form. The star is where a group is joined. hPhe(3,5-F2-4-CF3) = N[C@@H](CCc1cc(F)c(C(F)(F)F)c(F)c1)C(=O)O; hPhe(3-Cl-4-CF3) = N[C@@H](CCc1ccc(C(F)(F)F)c(Cl)c1)C(=O)O; NPrPhe(4-CF3) = CCCN[C@@H](Cc1ccc(C(F)(F)F)cc1)C(=O)O; X49 = Cc1ccc(C[C@@H](C(=O)[*:2])N(CC2CC2)[*:1])cc1; NMeGly(cPent) = CN[C@H](C(=O)O)C1CCCC1; Pro(4,4-F2) = O=C(O)[C@@H]1CC(F)(F)CN1; NMeD = CN[C@@H](CC(=O)O)C(=O)O; NMeL = CN[C@@H](CC(C)C)C(=O)O; αMeS = C[C@](N)(CO)C(=O)O; Morpholide = C1CN(*)CCO1; NMeA = CN[C@@H](C)C(=O)O; Ac5c = NC1(C(=O)O)CCCC1; Aze = O=C(O)[C@@H]1CCN1; Sar = CNCC(=O)O; Allyl = C=CC*

How the values were obtained:
[1] = target: GDP-bound NRAS wild-type protein (Homo sapiens, UniProt P01111); assay: Binding to NRAS by surface plasmon resonance (SPR), KD and KD ratio to KRAS
Chain of GDP-bound NRAS wild-type protein (P01111 whole entry): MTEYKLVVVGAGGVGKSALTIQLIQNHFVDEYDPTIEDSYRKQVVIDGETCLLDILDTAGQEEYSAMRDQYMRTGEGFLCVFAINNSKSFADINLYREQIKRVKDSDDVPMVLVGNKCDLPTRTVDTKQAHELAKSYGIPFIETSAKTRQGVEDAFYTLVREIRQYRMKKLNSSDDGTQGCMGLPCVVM
How it was run: (§1)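 GDP-bound biotin-Avi RAS captured at ~100–300 RU, 30°C, pH 7.4 HBS containing 10 µM GDP, 10 mM MgCl2, 1 mM DTT, 0.01% Tween 20 and 4% DMSO. KD by 1:1 fitting.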

[2] = target: HRAS wild-type protein (Homo sapiens, UniProt P01112); assay: Binding to HRAS by surface plasmon resonance (SPR), KD and KD ratio to KRAS
Chain of HRAS wild-type protein (P01112 whole entry): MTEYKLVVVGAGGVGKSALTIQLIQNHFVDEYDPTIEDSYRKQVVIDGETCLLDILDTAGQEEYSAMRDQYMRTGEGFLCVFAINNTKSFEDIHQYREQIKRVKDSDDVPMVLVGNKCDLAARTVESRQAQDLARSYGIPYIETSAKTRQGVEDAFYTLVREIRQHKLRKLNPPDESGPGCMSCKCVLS
How it was run: as §1

[3] = system: human lung cancer strain NCI-H441; assay type: cell-based
How it was run: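 Readout: […] after the ATP-based reagent. Compound: serial dilutions in dimethyl sulfoxide.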

[4] = ratio of the KD value with respect to GDP-bound NRAS wild-type protein to the KD value with respect to KRAS
[5] = ratio of the KD value with respect to HRAS wild-type protein to the KD value with respect to KRAS
[6] = ratio of KD for GDP-bound NRAS wild-type protein to KD for KRAS
[7] = ratio of KD for HRAS wild-type protein to KD for KRAS

| SMILES | IC50 [3] [nM] | NRAS /KRAS [1, 4] | HRAS /KRAS [2, 5] | NRAS /KRAS [1, 6] | HRAS /KRAS [2, 7] |
| --- | --- | --- | --- | --- | --- |
| CCO[C@@H]1C[C@H]2C(=O)NC3(CCC3)C(=O)N(C)[C@@H](C3CCCC3)C(=O)N(C)[C@H](C(=O)N3CCOCC3)CC(=O)N(C)[C@@H](CC)C(=O)N[C@@H]([C@@H](C)CC)C(=O)N(C)CC(=O)N(C)[C@H]3CCCCN(C3=O)[C@@H](Cc3ccc(C(F)(F)F)cc3)C(=O)N(C)CC(=O)N[C@@H](CCc3cc(F)c(C(F)(F)F)c(F)c3)C(=O)N2C1 [PP0708] | 5.5 | B (a compound having 3 or more and less than 10 is denoted as B) | B (a compound having 3 or more and less than 10 is denoted as B) |  |  |
| CCO[C@@H]1C[C@H]2C(=O)NC3(CCC3)C(=O)N(C)[C@@H](C3CCCC3)C(=O)N(C)[C@H](C(=O)N(C)C)CC(=O)N(C)[C@@H](CC3CC3)C(=O)N[C@@H]([C@@H](C)CC)C(=O)N(C)CC(=O)N(C)[C@H]3CCCCCN(C3=O)[C@@H](Cc3ccc(C(F)(F)F)cc3)C(=O)N(C)CC(=O)N[C@@H](CCc3cc(F)c(C(F)(F)F)c(F)c3)C(=O)N2C1 [PP0667] | 8.8 | B (a compound having 3 or more and less than 10 is denoted as B) | B (a compound having 3 or more and less than 10 is denoted as B) |  |  |
| C=CCOC[C@]1(C)NC(=O)[C@@H]2CCCN2C(=O)[C@H](CCc2cc(F)c(C(F)(F)F)c(F)c2)NC(=O)CN(C)C(=O)[C@H](Cc2ccc(C(F)(F)F)cc2)N(CCC)C(=O)[C@@H]2CCN2C(=O)CN(C)C(=O)[C@H]([C@@H](C)CC)NC(=O)[C@H](CC(C)C)N(C)C(=O)C[C@@H](C(=O)N2CCOCC2)N(C)C(=O)[C@H](C2CCCC2)N(C)C1=O [PP0799] ([NMeL]I[Sar][Aze][NPrPhe(4-CF3)][Sar][hPhe(3,5-F2-4-CF3)]P[αMeS](Allyl)[NMeGly(cPent)][NMeD]-Morpholide; lactam N-11) | 36.3 |  |  | C (A compound having a KD ratio of 0.1 or more and less than 3 is denoted as C) | B (a compound having 3 or more and less than 10 is denoted as B) |
| CCCN1C(=O)[C@@H]2CCN2C(=O)[C@H](C)N(C)C(=O)[C@H]([C@@H](C)CC)NC(=O)[C@H](CC(C)C)N(C)C(=O)C[C@@H](C(=O)N2CCOCC2)N(C)C(=O)[C@H](C2CCCC2)N(C)C(=O)C2(CCCC2)NC(=O)[C@@H]2CC(F)(F)CN2C(=O)[C@H](CCc2ccc(C(F)(F)F)c(Cl)c2)NC(=O)CN(C)C(=O)[C@@H]1Cc1ccc(C(F)(F)F)cc1 [PP0196] ([NMeL]I[NMeA][Aze][NPrPhe(4-CF3)][Sar][hPhe(3-Cl-4-CF3)][Pro(4,4-F2)][Ac5c][NMeGly(cPent)][NMeD]-Morpholide; lactam N-11) | 3.7 |  |  | C (A compound having a KD ratio of 0.1 or more and less than 3 is denoted as C) | C (A compound having a KD ratio of 0.1 or more and less than 3 is denoted as C) |
| CCO[C@@H]1C[C@H]2C(=O)NC3(CCC3)C(=O)N(C)[C@@H](C3CCCC3)C(=O)N(C)[C@H](C(=O)N(C)C)CC(=O)N(C)[C@@H](CC(C)C)C(=O)N[C@@H]([C@@H](C)CC)C(=O)N3CC[C@H]3C(=O)N(C)[C@H]3C[C@@H](C)CCN(C3=O)[C@@H](Cc3ccc(C(F)(F)F)cc3)C(=O)N(C)CC(=O)N[C@@H](CCc3cc(F)c(C(F)(F)F)c(F)c3)C(=O)N2C1 [PP1019] | 7.4 |  |  | C (A compound having a KD ratio of 0.1 or more and less than 3 is denoted as C) | B (a compound having 3 or more and less than 10 is denoted as B) |
| CCO[C@@H]1C[C@H]2C(=O)NC3(CCC3)C(=O)N(C)[C@@H](C3CCCC3)C(=O)N(C)[C@H](C(=O)N3CCOCC3)CC(=O)N(C)[C@@H](CC3CCCCC3)C(=O)N[C@@H]([C@@H](C)CC)C(=O)N(C)CC(=O)N(C)[C@H]3CCCCN(C3=O)[C@@H](Cc3ccc(C(F)(F)F)cc3)C(=O)N(C)CC(=O)N[C@@H](CCc3cc(F)c(C(F)(F)F)c(F)c3)C(=O)N2C1 [PP0716] | 6.3 | C (A compound having a KD ratio of 0.1 or more and less than 3 is denoted as C) | B (a compound having 3 or more and less than 10 is denoted as B) |  |  |

The remaining molecules from weak to strong by IC50 [3], led by results:

| IC50 [3] [nM] | SMILES | NRAS /KRAS [1, 4] | HRAS /KRAS [2, 5] | NRAS /KRAS [1, 6] | HRAS /KRAS [2, 7] |
| --- | --- | --- | --- | --- | --- |
| 39.6 | CC[C@H](C)[C@@H]1NC(=O)[C@H](CC)N(C)C(=O)C[C@@H](C(=O)N(C)C)N(C)C(=O)[C@H](C2CCCC2)N(C)C(=O)C2(CCC2)NC(=O)[C@@H]2C[C@H](N3CCC(F)(F)CC3)CN2C(=O)[C@H](CCc2cc(F)c(C(F)(F)F)c(F)c2)NC(=O)CN(C)C(=O)[C@H](Cc2ccc(C(F)(F)F)cc2)N2CCCC[C@@H](C2=O)N(C)C(=O)CN(C)C1=O [PP0732] | C (A compound having a KD ratio of 0.1 or more and less than 3 is denoted as C) | B (a compound having 3 or more and less than 10 is denoted as B) |  |  |
| 35 | CCCN1C(=O)CN(C)C(=O)[C@@H]2CCCN2C(=O)[C@H]([C@@H](C)CC)NC(=O)[C@H](CC(C)C)N(C)C(=O)C[C@@H](C(=O)N2CCOCC2)N(C)C(=O)[C@H](C2CCCC2)N(C)C(=O)C2(CCCC2)NC(=O)[C@@H]2CCCN2C(=O)[C@H](CCc2ccc(C(F)(F)F)c(Cl)c2)NC(=O)CN(C)C(=O)[C@@H]1Cc1ccc(C(F)(F)F)cc1 [PP0165] ([NMeL]IP[Sar][NPrPhe(4-CF3)][Sar][hPhe(3-Cl-4-CF3)]P[Ac5c][NMeGly(cPent)][NMeD]-Morpholide; lactam N-11) |  |  | B (a compound having 3 or more and less than 10 is denoted as B) | B (a compound having 3 or more and less than 10 is denoted as B) |
| 9.9 | CC[C@H](C)[C@@H]1NC(=O)[C@H](CC(C)C)N(C)C(=O)C[C@@H](C(=O)N2CCOCC2)N(C)C(=O)[C@H](C2CCCC2)N(C)C(=O)C2(CCCC2)NC(=O)[C@@H]2CCCN2C(=O)[C@H](CCc2ccc(C(F)(F)F)c(Cl)c2)NC(=O)CN(C)C(=O)[C@H](Cc2ccc(C)cc2)N(CC2CC2)C(=O)CN(C)C(=O)CN(C)C1=O [PP0064] ([NMeL]I[Sar][Sar][X49][Sar][hPhe(3-Cl-4-CF3)]P[Ac5c][NMeGly(cPent)][NMeD]-Morpholide; lactam N-11) |  |  | C (A compound having a KD ratio of 0.1 or more and less than 3 is denoted as C) | C (A compound having a KD ratio of 0.1 or more and less than 3 is denoted as C) |
| 2.6 | CCC[C@H]1C(=O)N[C@@H]([C@@H](C)CC)C(=O)N2CCC[C@H]2C(=O)N(C)[C@H]2C/C=C\CCN(C2=O)[C@@H](Cc2ccc(C)cc2)C(=O)N(C)CC(=O)N[C@@H](CCc2cc(F)c(C(F)(F)F)c(F)c2)C(=O)N2C[C@H](OCC)C[C@H]2C(=O)N(C)C2(CCC2)C(=O)N(C)[C@@H](C2CCCC2)C(=O)N(C)[C@H](C(=O)N2CCCC2)CC(=O)N1C [PP3117] |  |  | A (a compound having 10 or more and less than 20 is denoted as A) | A (a compound having 10 or more and less than 20 is denoted as A) |
| 2.3 | CCCN1C(=O)CN(C)C(=O)CN(C)C(=O)[C@H]([C@@H](C)CC)NC(=O)[C@H](CC(C)C)N(C)C(=O)C[C@@H](C(=O)N(C)C)N(C)C(=O)[C@H](C2CCCC2)N(C)C(=O)C2(CCCC2)NC(=O)[C@@H]2CCCN2C(=O)[C@H](CCc2ccc(C(F)(F)F)c(Cl)c2)NC(=O)CN(C)C(=O)[C@@H]1Cc1ccc(C(F)(F)F)cc1 [PP0169] ([NMeL]I[Sar][Sar][NPrPhe(4-CF3)][Sar][hPhe(3-Cl-4-CF3)]P[Ac5c][NMeGly(cPent)][NMeD]-NMe2; lactam N-11) |  |  | B (a compound having 3 or more and less than 10 is denoted as B) | B (a compound having 3 or more and less than 10 is denoted as B) |
